The results in this text go back to patent publication US12312346B2, “Pyridopyrimidine compounds and methods of their use” (Tufts Medical Center, Inc., priority 2018, dated 2025).

Each structure is given as a SMILES string.

This experiment deals with human leukemia cell line HPBALL (with Notch1 mutations). As to the kind of experiment: Cell cycle (PI staining, S-G2-M cells) and cell number, HPBALL. The format is cell-based. The conditions noted are these: Homo sapiens, 144 h; HPBALL, 6 days; read-out: IC50 (inhibition of proliferation, percentage of S-G2-M cells). On the procedure: FIG. 1A is a series of charts showing representative cell cycle profiles of human leukemia cell line HPBALL (with Notch1 mutations) treated with a vehicle (V) (for ribociclib (LEE) or compound GD) or LEE or compound GD for 6 days at 1, 5, 10, and 20 μM.
FIG. 1B is a histogram summarizing the cell cycle distribution of the HPBALL cell line treated with compound GD, as described for FIG. 1A. Data shown are mean±S.D. (n=6); *P<0.05 vs its vehicle controls, t-test.
FIG. 1C is a histogram summarizing the cell cycle distribution of the HPBALL cell line treated with ribociclib (LEE), as described for FIG. 1A. Data shown are mean±S.D. (n=6); *P<0.05 vs its vehicle controls, t-test.
FIG. 1D is a chart the percentage of S-G2-M cells in FIGS. 1B and 1C. IC50 is the concentration of an inhibitor where the response (here is the inhibition of proliferation) is reduced by half.
FIG. 1E is a bar graph summarizing the cell numbers of HPBALL cells treated with either GD with different doses or LEE (20 μM) for 6 days. Data shown are mean±S.D. (n=6); *P<0.05 vs vehicles (0) control, t-test.
HCl salt of 6-acetyl-5-methyl-2-((4-(piperazin-1-ylmethyl)thiazol-2-yl)amino)pyrido[2,3-d]pyrimidin-7(8H)-one (Compound GD) prepared in Example 1 was examined for its inhibitory activity in cancer cell lines and WT and CDK6^−/− mouse embryonic fibroblasts (MEFs) and stromal vascular fractions (SVFs). […]
Table 2: Experimental Procedures: sensitivity to CDK6 kinase activity inhibition was tested by incubating different cell lines in the presence of CDK6 inhibitor GD007/PBS for either 24 hours for detecting the status of pRB-780 phosphorylation, or 5 days for determining the effect of GD007 on cell proliferation. (1) By immunoblotting (WB), we will detect phospho-pRB-S^780, one of the substrates of CDK6 kinase; (2) By using FACS analysis, we will stain treated cells with Propidium Iodide (PI), a commonly used fluorescent intercalator, to measure the subpopulation of cell cycle to reveal any impact of CDK6 inhibition on cell proliferation; (3) cell numbers will be counted using hemocytometer.

Turning to `CN(C)C(=O)c1cc2cnc(Nc3ccc(N4CCNCC4)cn3)nc2n1C1CCCC1` [LEE, ribociclib, reference compound], the IC50 is approximately 12 µM.
